Where a name gives a salt, the structure may show the parent alone.
target: T1, AXL (Homo sapiens, UniProt P30530); assay: AXL autophosphorylation ELISA in A-172 cells; assay type: cell-based; conditions: Table 3 Cellular Activities, Gas6-stimulated, phospho-AXL ELISA
T1 construct: endogenous in cells; host or cells: A-172 glioblastoma cells (ATCC #CRL-1620)
T1 sequence (P30530 26-894): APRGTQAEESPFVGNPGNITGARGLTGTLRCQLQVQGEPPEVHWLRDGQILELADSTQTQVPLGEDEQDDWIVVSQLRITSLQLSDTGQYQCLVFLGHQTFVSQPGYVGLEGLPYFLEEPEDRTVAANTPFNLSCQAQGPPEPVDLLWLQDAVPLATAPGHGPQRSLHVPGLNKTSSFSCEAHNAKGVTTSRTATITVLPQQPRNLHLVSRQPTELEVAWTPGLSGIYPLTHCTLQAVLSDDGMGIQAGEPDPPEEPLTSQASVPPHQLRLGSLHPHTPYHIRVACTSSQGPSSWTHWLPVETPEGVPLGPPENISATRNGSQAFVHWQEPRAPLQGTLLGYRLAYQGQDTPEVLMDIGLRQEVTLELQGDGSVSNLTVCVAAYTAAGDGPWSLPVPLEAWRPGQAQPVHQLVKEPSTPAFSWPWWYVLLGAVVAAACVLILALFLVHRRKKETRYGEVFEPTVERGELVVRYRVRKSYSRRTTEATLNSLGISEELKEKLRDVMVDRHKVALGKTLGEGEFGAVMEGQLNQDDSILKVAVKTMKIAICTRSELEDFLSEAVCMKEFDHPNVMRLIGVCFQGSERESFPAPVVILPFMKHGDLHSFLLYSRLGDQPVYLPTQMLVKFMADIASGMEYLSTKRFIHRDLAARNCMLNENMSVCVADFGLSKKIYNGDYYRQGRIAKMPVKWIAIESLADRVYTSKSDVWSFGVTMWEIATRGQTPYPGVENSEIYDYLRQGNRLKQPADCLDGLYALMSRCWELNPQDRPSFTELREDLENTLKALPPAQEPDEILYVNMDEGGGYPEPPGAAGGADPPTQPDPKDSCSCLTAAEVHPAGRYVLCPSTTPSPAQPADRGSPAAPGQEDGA
How it was run: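 Phospho-AXL in lysates measured by ELISA after Gas6 stimulation (1 μg/mL, 15 min) of A-172 cells pre-incubated 1 h with an 8-point compound dilution series in 0.3% DMSO after 24 h serum starvation. IC50 by 4-parameter logistic fit, with DMSO-treated and reference-inhibitor wells as 100% and 0% activity.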

IC50, ≤ 100 nM:
COc1cc2nccc(Oc3ccc(NC(=O)c4cnc(C)c(-c5ccnn5C)c4O)cc3F)c2nc1OC [Compound 104]
COc1cnc2c(Oc3ccc(NC(=O)c4c(C)n(C)c(C)c(-c5cccs5)c4=O)cc3)ccnc2c1 [Compound 165, N-[4-[(7-Methoxy-1,5-naphthyridin-4-yl)oxy]phenyl]-1,2,6-trimethyl-4-oxo-5-thiophen-2-ylpyridine-3-carboxamide]
COc1cnc2c(Oc3ccc(NC(=O)c4c(C)n(C)c(C)c(-c5cccs5)c4=O)cc3F)ccnc2c1 [Compound 166, N-[3-Fluoro-4-[(7-methoxy-1,5-naphthyridin-4-yl)oxy]phenyl]-1,2,6-trimethyl-4-oxo-5-thiophen-2-ylpyridine-3-carboxamide]
COc1cnc2c(Oc3ccc(NC(=O)c4cn(CCF)c(C)c(-c5ccsc5)c4=O)cc3F)ccnc2c1 [Compound 330, 1-(2-Fluoroethyl)-N-[3-fluoro-4-[(7-methoxy-1,5-naphthyridin-4-yl)oxy]phenyl]-6-methyl-4-oxo-5-thiophen-3-ylpyridine-3-carboxamide]
C=Cc1ccc(-c2c(C)ncc(C(=O)Nc3ccc(Oc4ccnc5cc(OC)c(OC)nc45)c(F)c3)c2O)o1 [Compound 151, N-[4-[(6,7-Dimethoxy-1,5-naphthyridin-4-yl)oxy]-3-fluorophenyl]-5-(5-ethenylfuran-2-yl)-4-hydroxy-6-methylpyridine-3-carboxamide]
COc1cc2nccc(Oc3ccc(NC(=O)c4cnc(C)c(-c5cc(C(F)(F)F)nn5C)c4O)cc3F)c2nc1OC [Compound 105]
CCc1ccc(-c2c(C)nc(C)c(C(=O)Nc3ccc(Oc4ccnc5cc(OC)c(OC)nc45)c(F)c3)c2O)o1 [Compound 147, N-[4-[(6,7-Dimethoxy-1,5-naphthyridin-4-yl)oxy]-3-fluorophenyl]-5-(5-ethylfuran-2-yl)-4-hydroxy-2,6-dimethylpyridine-3-carboxamide]
COc1cc2nccc(Oc3ccc(NC(=O)c4c(C)nc(C)c(-c5ccc(C6CC6)o5)c4O)cc3F)c2nc1OC [Compound 155B, 5-(5-Cyclopropylfuran-2-yl)-N-[4-[(6,7-dimethoxy-1,5-naphthyridin-4-yl)oxy]-3-fluorophenyl]-4-hydroxy-2,6-dimethylpyridine-3-carboxamide]
COc1cc2nccc(Oc3ccc(NC(=O)c4c(C)nc(C)c(-c5sccc5C)c4O)cc3F)c2nc1OC [Compound 139, N-[4-[(6,7-Dimethoxy-1,5-naphthyridin-4-yl)oxy]-3-fluorophenyl]-4-hydroxy-2,6-dimethyl-5-(3-methylthiophen-2-yl)pyridine-3-carboxamide]
COc1cc2nccc(Oc3ccc(NC(=O)c4cnc(C)c(-c5ccc(C6CC6)o5)c4O)cc3F)c2nc1OC [Compound 155A, 5-(5-Cyclopropylfuran-2-yl)-N-[4-[(6,7-dimethoxy-1,5-naphthyridin-4-yl)oxy]-3-fluorophenyl]-4-hydroxy-6-methylpyridine-3-carboxamide hydrochloride]
COc1cc2nccc(Oc3ccc(NC(=O)c4c(C)n(C)c(C)c(-c5cccs5)c4=O)cc3F)c2nc1OC [Compound 168, N-[4-[(6,7-Dimethoxy-1,5-naphthyridin-4-yl)oxy]-3-fluorophenyl]-1,2,6-trimethyl-4-oxo-5-thiophen-2-ylpyridine-3-carboxamide]
COc1cc2nccc(Oc3ccc(NC(=O)c4cnc(C)c(-c5ccsc5)c4O)cc3F)c2nc1OC [Compound 93, N-[4-[(6,7-Dimethoxy-1,5-naphthyridin-4-yl)oxy]-3-fluoro-phenyl]-4-hydroxy-6-methyl-5-(3-thienyl)pyridine-3-carboxamide]
COc1cc2nccc(Oc3ccc(NC(=O)c4c(C)n(C)c(C)c(-c5ccco5)c4=O)cc3)c2nc1OC [Compound 164, N-[4-[(6,7-Dimethoxy-1,5-naphthyridin-4-yl)oxy]phenyl]-5-(furan-2-yl)-1,2,6-trimethyl-4-oxopyridine-3-carboxamide]
COc1cc2nccc(Oc3ccc(NC(=O)c4c(C)nc(C)c(-c5ccnn5C)c4O)cc3F)c2nc1OC [Compound 108, N-[4-[(6,7-Dimethoxy-1,5-naphthyridin-4-yl)oxy]-3-fluoro-phenyl]-4-hydroxy-2,6-dimethyl-5-(2-methylpyrazol-3-yl) pyridine-3-carboxamide]
COc1cc2nccc(Oc3ccc(NC(=O)c4cn(CCF)c(C)c(-c5ccco5)c4=O)cc3F)c2nc1OC [Compound 333, N-[4-[(6,7-Dimethoxy-1,5-naphthyridin-4-yl)oxy]-3-fluorophenyl]-1-(2-fluoroethyl)-5-(furan-2-yl)-6-methyl-4-oxopyridine-3-carboxamide]
COc1cc2nccc(Oc3ccc(NC(=O)c4c(C)ncc(-c5cccs5)c4O)cc3F)c2nc1OC [Compound 123, N-[4-[(6,7-Dimethoxy-1,5-naphthyridin-4-yl)oxy]-3-fluorophenyl]-4-hydroxy-2-methyl-5-thiophen-2-ylpyridine-3-carboxamide]
COc1cnc2c(Oc3ccc(NC(=O)c4cnc(C)c(-c5ccoc5)c4O)cc3F)ccnc2c1 [Compound 99, N-[3-Fluoro-4-[(7-methoxy-1,5-naphthyridin-4-yl)oxy]phenyl]-5-(3-furyl)-4-hydroxy-6-methyl-pyridine-3-carboxamide]
COc1cc2nccc(Oc3ccc(NC(=O)c4c(C)ncc(-c5ccsc5)c4O)cc3F)c2nc1OC [Compound 127, N-[4-[(6,7-Dimethoxy-1,5-naphthyridin-4-yl)oxy]-3-fluorophenyl]-4-hydroxy-2-methyl-5-thiophen-3-ylpyridine-3-carboxamide]
COCc1nc(C)c(-c2cccs2)c(O)c1C(=O)Nc1ccc(Oc2ccnc3cc(OC)c(OC)nc23)c(F)c1 [Compound 115, N-[4-[(6,7-Dimethoxy-1,5-naphthyridin-4-yl)oxy]-3-fluorophenyl]-4-hydroxy-2-(methoxymethyl)-6-methyl-5-thiophen-2-ylpyridine-3-carboxamide]
C=CCc1ccc(-c2c(C)ncc(C(=O)Nc3ccc(Oc4ccnc5cc(OC)c(OC)nc45)c(F)c3)c2O)o1 [Compound 155, N-[4-[(6,7-Dimethoxy-1,5-naphthyridin-4-yl)oxy]-3-fluorophenyl]-4-hydroxy-6-methyl-5-(5-prop-2-enylfuran-2-yl)pyridine-3-carboxamide]
COc1cc2nccc(Oc3ccc(NC(=O)c4c(C)ncc(-c5sccc5C)c4O)cc3F)c2nc1OC [Compound 126, N-[4-[(6,7-Dimethoxy-1,5-naphthyridin-4-yl)oxy]-3-fluorophenyl]-4-hydroxy-2-methyl-5-(3-methylthiophen-2-yl)pyridine-3-carboxamide]
COc1cnc2c(Oc3ccc(NC(=O)c4cnc(C)c(-c5ccco5)c4O)cc3)ccnc2c1 [Compound 129, 5-(Furan-2-yl)-4-hydroxy-N-[4-[(7-methoxy-1,5-naphthyridin-4-yl)oxy]phenyl]-6-methylpyridine-3-carboxamide]
COc1nc2c(Oc3ccc(NC(=O)c4c(C)n(C)c(C)c(-c5ccco5)c4=O)cc3F)ccnc2cc1OCCC1CCC1 [Compound 337, N-[4-[[7-(2-Cyclobutylethoxy)-6-methoxy-1,5-naphthyridin-4-yl]oxy]-3-fluorophenyl]-5-(furan-2-yl)-1,2,6-trimethyl-4-oxopyridine-3-carboxamide]
COc1cc2nccc(Oc3ccc(NC(=O)c4cnc(C)c(-c5cc(C)cs5)c4O)cc3F)c2nc1OC [Compound 91, N-[4-[(6,7-Dimethoxy-1,5-naphthyridin-4-yl)oxy]-3-fluoro-phenyl]-4-hydroxy-6-methyl-5-(4-methyl-2-thienyl) pyridine-3-carboxamide]
COc1cnc2c(Oc3ccc(NC(=O)c4cn(CCF)c(C)c(-c5ccoc5)c4=O)cc3F)ccnc2c1 [Compound 334, 1-(2-Fluoroethyl)-N-[3-fluoro-4-[(7-methoxy-1,5-naphthyridin-4-yl)oxy]phenyl]-5-(furan-3-yl)-6-methyl-4-oxopyridine-3-carboxamide]
COCc1nc(C)c(-c2ccccn2)c(O)c1C(=O)Nc1ccc(Oc2ccnc3cc(OC)c(OC)nc23)c(F)c1 [Compound 195, N-[4-[(6,7-Dimethoxy-1,5-naphthyridin-4-yl)oxy]-3-fluorophenyl]-4-hydroxy-2-(methoxymethyl)-6-methyl-5-pyridin-2-ylpyridine-3-carboxamide]
